Measurements: US20230212571A1, “COMPOSITIONS AND METHODS FOR DELIVERING POLYNUCLEOTIDES” (NeOnc Technologies, Inc., priority 2020, published 2023)

Key:
AVM-BEC [1] = assay: ELISA of AVM-BEC supernatants; format: cell-based, human
Source text: (§1) Human surgical specimens were obtained following written informed consent from patients in accordance with Declaration of Helsinki guidelines and the Institutional Review Board (HS-04B053), at Keck School of Medicine, USC. AVM-BECs were isolated from brain tissues of patients who underwent microsurgical AVM resection. Control BECs were isolated from the structurally normal […] of patients who underwent temporal lobectomy for intractable epilepsy. Endothelial cell (EC) isolation and culture were described^5,9. (Stapleton C J, Armstrong D L, Zidovetzki R, Liu C Y, Giannotta S L, Hofman F M. Thrombospondin-1 modulates the angiogenic phenotype of human cerebral arteriovenous malformation endothelial cells. Neurosurgery. 2011; 68(5):1342-1353) (Ferreira R, Santos T, Amar A, et al. Argonaute-2 promotes miR-18a entry in human brain endothelial cells. J Am Heart Assoc. 2014; 3(3):e000968) ECs were only used between passages 3-5. Experiments were performed under shear flow conditions (12 dyn/cm^2) to reproduce arterial flow^6. (Ferreira R, Santos T, Amar A, et al. MicroRNA-18a improves human cerebral arteriovenous malformation endothelial cell function. Stroke. 2014; 45(1):293-297). For hypoxic experiments, cells were cultured in a Galaxy 48R (Eppendorf) incubator at 3% O2. MicroRNAs were co-administered with Ago-2 to increase the cellular uptake of miR-18a^9 (Ferreira R, Santos T, Amar A, et al. Argonaute-2 promotes miR-18a entry in human brain endothelial cells. J Am Heart Assoc. 2014; 3(3):e000968) (FIG. 9). Methods regarding cell treatments and transfections were included in Data.
Small interfering RNA transfection was performed as previously described^5. Briefly, ECs were transfected with small interfering RNA (siRNA) against ID1 or PAI-1 (Thermo Fisher Scientific), or small interfering control (Santa Cruz Biotechnology) constructs using Lipofectamine RNAiMax (Thermo Fisher Scientific) per the manufacturer's instructions. Knockdown of ID1 or PAI-1 was confirmed by quantitative real-time polymerase chain reaction as described^6 (FIG. 19). The sequences of the forward and reverse primers for ID1 and PAI-1 were included in Table 2.
Plasmid constructs pcDNA3-ALK2^WT (Addgene #80870) and pcDNA3-ALK2^Q207D (Addgene #80871) were a gift from Aristidis Moustakas^7. (Meyer B, Schaller C, Frenkel C, Ebeling B, Schramm J. Distributions of local oxygen saturation and its response to changes of mean arterial blood pressure in the cerebral cortex adjacent to arteriovenous malformations. Stroke. 1999; 30(12):2623-2630) 10^4 AVM-BEC were seeded 24 h before transfection. The plasmid vector containing the 3′ untranslated region (3′UTR) of human BMP4, pRP [Exp]-Puro-CMV>Luciferase:{hBMP4_3′UTR}, was constructed and packaged by VectorBuilder. The vector ID is VB200205-1078zdv, which can be used to retrieve detailed information about the vector on vectorbuilder.com. Transient transfections were performed with Lipofectamine RNAiMax (Thermo Fisher Scientific) according to the manufacturer's instructions. After 4 h, medium was replaced by fresh medium containing microRNA.
MiR-18a (hsa-miR-18a-5p, 40 nM, Dharmacon) or a scramble microRNA (40 nM, Dharmacon) in nuclease-free water was added with argonaute 2 (Ago-2, 0.4 nM, Abcam) as the microRNA carrier and stabilizer^9. (Ferreira R, Santos T, Amar A, et al. Argonaute-2 promotes miR-18a entry in human brain endothelial cells. J Am Heart Assoc. 2014; 3(3):e000968). No transfection reagent was used with miR-18a or scramble microRNA treatments. Recombinant human TSP-1 (R&D Systems) stock solution was prepared in PBS and further diluted in culture medium to be used at a final concentration of 1000 ng/mL. Cells were treated during 24 h for mRNA and 48 h for protein expression studies. NEO100 (NeOnc Technologies) stock was prepared in DMSO and used immediately or stored at −20° C. […]

AVM-BEC [2] = assay: Western blot of AVM-BEC lysates; format: cell-based, human
Source text: as §1
MiR-18a (hsa-miR-18a-5p, 40 nM, Dharmacon) or a scramble microRNA (40 nM, Dharmacon) in nuclease-free water was added with argonaute 2 (Ago-2, 0.4 nM, Abcam) as the microRNA carrier and stabilizer^9. (Ferreira R, Santos T, Amar A, et al. Argonaute-2 promotes miR-18a entry in human brain endothelial cells. J Am Heart Assoc. 2014; 3(3):e000968). No transfection reagent was used with miR-18a or scramble microRNA treatments. Recombinant human TSP-1 (R&D Systems) stock solution was prepared in PBS and further diluted in culture medium to be used at a final concentration of 1000 ng/mL. Cells were treated during 24 h for mRNA and 48 h for protein expression studies. NEO100 (NeOnc Technologies) stock was prepared in DMSO and used immediately or stored at −20° C.
The levels of angiogenesis-related proteins were analyzed using the Proteome Profiler™ Human Angiogenesis Array kit (R&D Systems) following the manufacturer's instructions. The protocol for western blot was published^10. (Marín-Ramos N I, Alonso D, Ortega-Gutiérrez S, et al. New inhibitors of angiogenesis with antitumor activity in vivo. J Med Chem. 2015; 58(9):3757-3766). Information about antibodies used was included in Table 1. Membranes were visualized and quantified using a C-Digit Blot scanner (Li-Cor) or a iBright CL1000 (Thermo Fisher Scientific).

Substance: hsa-miR-18a-5p (UAGGUGCAUCUAGUGCAGAUAG; chemistry not given here; listed as Homo sapiens) [small non-coding RNA molecule involved in post-transcriptional regulation of gene expression; Dharmacon]
- VEGF levels (ELISA) (AVM-BEC [1]; ALK2^WT-transfected AVM-BEC, P=0.0030): decrease VEGF levels
- levels of secreted TGF-β (ELISA) (AVM-BEC [1]; AVM-BEC supernatants, P>0.9999): not significantly changed
- levels of secreted PAI-1 (AVM-BEC [1]; AVM-BEC supernatants, normoxia, vs scramble microRNA): decreased
- levels of secreted VEGF (AVM-BEC [1]; AVM-BEC supernatants, normoxia, decrease only reached significance with miR-18a): decreased
- VEGF levels (ELISA) (AVM-BEC [1]; AVM-BEC transfected with constitutively active ALK2^Q207D, P>0.9999): unable to decrease VEGF levels
- levels of secreted VEGF (AVM-BEC [1]; AVM-BEC transfected with siCTL, P=0.0007 vs scramble): decreased
- effects of miR-18a in the decrease of secreted VEGF levels (AVM-BEC [1]; AVM-BEC transfected with siPAI-1): lost
- PAI-1 secretion (AVM-BEC [1]; AVM-BEC, hypoxia 3% oxygen): reduction of PAI-1 secretion caused by miR-18a was still observed
- MMP9 protein levels (western blot) (AVM-BEC [2]; AVM-BEC): not significantly (P=0.9409) affected
- ratio MMP2/MMP9 protein levels (AVM-BEC [2]; AVM-BEC): lowers the ratio MMP2/MMP9
- ADAM10 protein levels (western blot) (AVM-BEC [2]; AVM-BEC, P<0.001): significantly decreased
- MMP2 protein levels (western blot) (AVM-BEC [2]; AVM-BEC, P=0.0132): significantly decreased
- levels of TGF-β (western blot) (AVM-BEC [2]; AVM-BEC, P>0.9999): not significantly changed
- phosphorylation levels of Smad3 (AVM-BEC [2]; AVM-BEC, P>0.9999): Neither the phosphorylation levels of Smad3 nor the total levels of Smad4 were altered
- total levels of Smad4 (AVM-BEC [2]; AVM-BEC, P>0.9999): Neither the phosphorylation levels of Smad3 nor the total levels of Smad4 were altered
- phosphorylation levels of Smad1/5 (AVM-BEC [2]; AVM-BEC, vs scramble): significantly (P<0.0001) decreased
- PAI-1 protein levels (western blot) (AVM-BEC [2]; patient-derived AVM-BEC, vs scramble microRNA, P<0.001, n=8): decreased
